{"source": "patent US12629370B2", "about": "“Treatment of prostate cancer” (Sumitomo Pharma Co., Ltd., priority 2016, dated 2026)", "assay_type_in_all_cases": "in vivo, human", "key": {"[1]": {"tested_on": "patients with intermediate-risk prostate cancer", "test": "Example 9: quality of life (EORTC QLQ-C30, QLQ-PR25, AMS)", "method": "(§1) Eligible male patients were aged ≥18 years with a histologically confirmed diagnosis of localized, intermediate-risk prostate cancer, for whom 6-month neoadjuvant and adjuvant androgen deprivation therapy (ADT) to external beam radiation therapy (EBRT) was indicated. The criteria for establishing intermediate-risk prostate cancer included the presence of one of the following, without any high-risk feature: T2b-T2c disease, Gleason score 7, or prostate-specific antigen (PSA) 10-20 ng/mL. Additional inclusion criteria included: EBRT scheduled to begin ≥12 weeks after baseline visit; screening serum testosterone >150 ng/dL (5.2 nmol/L); screening PSA concentration >2 ng/ml; body mass index ≥18.0 at screening or baseline (i.e., the subject's BMI prior to treatment commencing); Eastern Cooperative Oncology Group performance status of 0 or 1 at screening. Based on investigator discretion and clinical assessment of the patient's overall medical and disease status, participation was allowed for older patients with high-risk disease (e.g., based on Gleason score or tumor status) who were deemed likely to benefit from 6 months of neoadjuvant/adjuvant ADT. Most patients had intermediate-risk disease. However, a few patients, based on Gleason score or tumor, node, and metastasis staging system, were technically of higher than intermediate risk.\n(§2) Both treatment arms received treatment for 24 weeks. Patients remained on treatment for at least 12 weeks before the start of external beam radiation treatment (EBRT), which was initiated for most patients between Week 13, Day 1 and Week 15, Day 1. EBRT began no later than day 1, week 17.\nQuality of Life (QoL) was assessed via the core 30-item European Organisation for Research and Treatment of Cancer quality of life questionnaire (EORTC QLQ-C30), the 25-item prostate cancer module EORTC questionnaire (EORTC QLQ-PR25), and the aging male survey (AMS). QoL assessments were completed at screening, on day 1 of weeks 1, 5, 13, and 25, and at weeks 29, 33, and 37."}, "FSH": {"tested_on": "FSH", "test": "Example 9: FSH", "method": "as §1, §2\n(§3) Patients were evaluated every 4 weeks during the treatment period (including day 1, week 25), at end of treatment (defined as week 29), during follow-up (week 33), and at end of study (EOS).\n(§4) Samples for testosterone, luteinizing hormone (LH), FSH, and PSA concentrations were taken at screening, on day 1 of the first week (additionally days 2 and 4 for testosterone and LH), and on day 1 of weeks 2, 3, 5, 9, 13, 17, 21, 25, 29, 33, and 37 thereafter. […] Suppression of FSH was less profound than that of LH, but consistent with the literature, and was greater than that observed with GnRH agonists."}, "LH": {"tested_on": "LH", "test": "Example 9: LH", "method": "(§5) Eligible male patients were aged ≥18 years with a histologically confirmed diagnosis of localized, intermediate-risk prostate cancer, for whom 6-month neoadjuvant and adjuvant androgen deprivation therapy (ADT) to external beam radiation therapy (EBRT) was indicated. The criteria for establishing intermediate-risk prostate cancer included the presence of one of the following, without any high-risk feature: T2b-T2c disease, Gleason score 7, or prostate-specific antigen (PSA) 10-20 ng/mL. […] Based on investigator discretion and clinical assessment of the patient's overall medical and disease status, participation was allowed for older patients with high-risk disease (e.g., based on Gleason score or tumor status) who were deemed likely to benefit from 6 months of neoadjuvant/adjuvant ADT.\nBoth treatment arms received treatment for 24 weeks. […] EBRT began no later than day 1, week 17.\nas §3\n(§6) Samples for testosterone, luteinizing hormone (LH), FSH, and PSA concentrations were taken at screening, on day 1 of the first week (additionally days 2 and 4 for testosterone and LH), and on day 1 of weeks 2, 3, 5, 9, 13, 17, 21, 25, 29, 33, and 37 thereafter."}, "serum testosterone": {"tested_on": "serum testosterone", "test": "Example 9: serum testosterone, castration and recovery, neoadjuvant/adjuvant ADT to EBRT, versus degarelix", "details": "for Percent recovery (95% CI) to baseline testosterone or >280 ng/dL: 12 weeks from last dose", "method": "as §5\nBoth treatment arms received treatment for 24 weeks. […] EBRT began no later than day 1, week 17. […]\nas §6"}, "PSA": {"tested_on": "PSA", "test": "Example 9: PSA", "method": "as §1, §2, §3, §4"}, "[2]": {"details": "from baseline (day 1) to week 25"}, "[3]": {"details": "subjects with at least 24 weeks of treatment"}}, "note": "Where a SMILES comes first, the peptide text is derived from it. [ ]: non-standard residue; d: D form. The star is where a group is joined. dPhe(4-NHCONH2) = NC(=O)Nc1ccc(C[C@@H](N)C(=O)O)cc1; Dihydroorotyl(S) = O=C1C[C@@H](C(=O)*)NC(=O)N1; dPhe(4-Cl) = N[C@H](Cc1ccc(Cl)cc1)C(=O)O; Phe(4-NH2) = Nc1ccc(C[C@H](N)C(=O)O)cc1; d2Nal = N[C@H](Cc1ccc2ccccc2c1)C(=O)O; Lys(iPr) = CC(C)NCCCC[C@H](N)C(=O)O; d3Pal = N[C@H](Cc1cccnc1)C(=O)O"}
{"smiles": "CC(=O)N[C@H](Cc1ccc2ccccc2c1)C(=O)N[C@H](Cc1ccc(Cl)cc1)C(=O)N[C@H](Cc1cccnc1)C(=O)N[C@@H](CO)C(=O)N[C@@H](Cc1ccc(NC(=O)[C@@H]2CC(=O)NC(=O)N2)cc1)C(=O)N[C@H](Cc1ccc(NC(N)=O)cc1)C(=O)N[C@@H](CC(C)C)C(=O)N[C@@H](CCCCNC(C)C)C(=O)N1CCC[C@H]1C(=O)N[C@H](C)C(N)=O", "note": "[Degarelix, degarelix, reference compound] (Ac-[d2Nal][dPhe(4-Cl)][d3Pal]S[Phe(4-NH2)](Dihydroorotyl(S))[dPhe(4-NHCONH2)]L[Lys(iPr)]P[dA]-NH2)", "values": [{"measurement": "Global health/QoL, Mean (SD) change", "setting": "[1]; [2]", "value": "−7.5 (13.7)"}, {"measurement": "Hormonal treatment-related symptoms, Mean (SD) change", "setting": "[1]; [2]", "value": "12.9 (10.4)"}, {"measurement": "Sexual activity, Mean (SD) change", "setting": "[1]; [2]", "value": "−11.8 (36.3)"}, {"measurement": "Global health/QoL, Mean (SD) change", "setting": "[1]; from baseline to week 36 (EOS)", "value": "−6.8 (16.0)"}, {"measurement": "Hormonal treatment-related symptoms, Mean (SD) change", "setting": "[1]; from baseline to week 36 (EOS)", "value": "11.7 (10.2)"}, {"measurement": "Sexual activity, Mean (SD) change", "setting": "[1]; from baseline to week 36 (EOS)", "value": "−5.3 (34.7)"}, {"measurement": "Global health/QoL, Mean (SD) change", "setting": "[1]; from week 25 to week 36", "value": "0.7 (15.5)"}, {"measurement": "Hormonal treatment-related symptoms, Mean (SD) change", "setting": "[1]; from week 25 to week 36", "value": "−1.2 (9.1)"}, {"measurement": "Sexual activity, Mean (SD) change", "setting": "[1]; from week 25 to week 36", "value": "6.6 (22.8)"}, {"measurement": "FSH level before administration", "setting": "FSH; Baseline", "value": 11.716, "unit": "IU/L"}, {"measurement": "FSH level", "setting": "FSH; Week 2, Day 1", "value": 2.519, "unit": "IU/L"}, {"measurement": "mean FSH level", "setting": "FSH; Week 25, Day 1", "value": 1.471, "unit": "IU/L"}, {"measurement": "Median LH", "setting": "LH; Baseline", "value": 4.8, "unit": "mlU/mL"}, {"measurement": "LH level", "setting": "LH; Day 4", "value": 0.499, "unit": "mIU/mL"}, {"measurement": "Median LH", "setting": "LH; Week 24", "value": 0.1, "unit": "mlU/mL"}, {"measurement": "mean LH level", "setting": "LH; Week 25, Day 1", "value": 0.342, "unit": "IU/L"}, {"measurement": "Median LH", "setting": "LH; Week 28/EOT visit", "value": 0.2, "unit": "mlU/mL"}, {"measurement": "Median LH", "setting": "LH; Week 32/follow-up", "value": 0.5, "unit": "mlU/mL"}, {"measurement": "Median LH", "setting": "LH; Week 36/EOS", "value": 1.4, "unit": "mlU/mL"}, {"measurement": "Kaplan-Meier estimate (95% CI) of testosterone recovery, probability of event", "setting": "serum testosterone; 4 weeks from last dose", "value": "0.00 (0.00.0.00)"}, {"measurement": "Kaplan-Meier estimate (95% CI) of testosterone recovery, probability of event", "setting": "serum testosterone; 8 weeks from last dose", "value": "0.00 (0.00.0.00)"}, {"measurement": "patients whose serum testosterone met the definition of recovery", "setting": "serum testosterone; 12-week follow-up", "value": "6 of 38"}, {"measurement": "Percent recovery (95% CI) to baseline testosterone or >280 ng/dL", "setting": "serum testosterone", "value": "5.3 (0.6.17.7) %"}, {"measurement": "Percent recovery (95% CI) to baseline testosterone or >280 ng/dL", "setting": "serum testosterone; listed as degarelix", "value": 5.3, "unit": "%"}, {"measurement": "Median testosterone", "setting": "serum testosterone; Baseline", "value": 403.8, "unit": "ng/dL"}, {"measurement": "Testosterone Median", "setting": "serum testosterone; Baseline", "value": 14.020, "unit": "nmol/L"}, {"measurement": "Testosterone Mean (Std Dev)", "setting": "serum testosterone; Baseline, Compound 1 120 mg QD or degarelix 80 mg Q4W", "value": "14.567 (5.5680) nmol/L"}, {"measurement": "Testosterone Mean (Std Dev)", "setting": "serum testosterone; EOS", "value": "3.038 (4.0224) nmol/L"}, {"measurement": "Testosterone Median", "setting": "serum testosterone; EOS", "value": 1.040, "unit": "nmol/L"}, {"measurement": "Testosterone Mean (Std Dev)", "setting": "serum testosterone; EOT", "value": "0.576 (1.2218) nmol/L"}, {"measurement": "Testosterone Median", "setting": "serum testosterone; EOT", "value": 0.335, "unit": "nmol/L"}, {"measurement": "Testosterone Mean (Std Dev)", "setting": "serum testosterone; Follow-Up", "value": "1.206 (1.9330) nmol/L"}, {"measurement": "Testosterone Median", "setting": "serum testosterone; Follow-Up", "value": 0.560, "unit": "nmol/L"}, {"measurement": "Median testosterone", "setting": "serum testosterone; Week 24", "value": 8.9, "unit": "ng/dL"}, {"measurement": "Testosterone Mean (Std Dev)", "setting": "serum testosterone; Week 25, Day 1", "value": "0.582 (1.5107) nmol/L"}, {"measurement": "Testosterone Median", "setting": "serum testosterone; Week 25, Day 1", "value": 0.310, "unit": "nmol/L"}, {"measurement": "Median testosterone", "setting": "serum testosterone; Week 28/EOT visit", "value": 9.6, "unit": "ng/dL"}, {"measurement": "Median testosterone", "setting": "serum testosterone; Week 32/follow-up", "value": 16.1, "unit": "ng/dL"}, {"measurement": "Median testosterone", "setting": "serum testosterone; Week 36/EOS", "value": 30.0, "unit": "ng/dL"}, {"measurement": "patients recovered to baseline testosterone or greater than 280 ng/dL", "setting": "serum testosterone; end of 12-week follow-up", "value": 6, "unit": "%"}, {"measurement": "median serum testosterone", "setting": "serum testosterone; end of study visit", "value": "< 50", "unit": "ng/dL"}, {"measurement": "Median time to medical castration (≤50 ng/dL)", "setting": "serum testosterone; in vivo", "value": 3, "unit": "days"}, {"measurement": "Median time to profound castration (≤20 ng/dL)", "setting": "serum testosterone; in vivo", "value": 12, "unit": "days"}, {"measurement": "medical castration rate (less than 50 ng/dL)", "setting": "serum testosterone; over 24 weeks, overall", "value": 89, "unit": "%"}, {"measurement": "profound castration rate (less than 20 ng/dL)", "setting": "serum testosterone; over 24 weeks, overall", "value": 68, "unit": "%"}, {"measurement": "Testosterone recovery (baseline or >280 ng/dL): number with events", "setting": "serum testosterone; overall safety population", "value": "6 (16) n (%)"}, {"measurement": "Testosterone recovery: number censored", "setting": "serum testosterone; overall safety population", "value": "32 (84) n (%)"}, {"measurement": "Time to testosterone recovery, 25th percentile (95% CI)", "setting": "serum testosterone; overall safety population", "value": "100 (87.106) days"}, {"measurement": "Time to testosterone recovery, 75th percentile (95% CI)", "setting": "serum testosterone; overall safety population", "value": "106 (100.106) days"}, {"measurement": "Time to testosterone recovery, Median (95% CI)", "setting": "serum testosterone; overall safety population", "value": "100 (100.106) days"}, {"measurement": "Time to testosterone recovery, Median (95% CI)", "setting": "serum testosterone; overall safety population, listed as degarelix", "value": "100 (100, 106) days"}, {"measurement": "medical castration rate (less than 50 ng/dL)", "setting": "serum testosterone; [3]", "value": 86, "unit": "%"}, {"measurement": "profound castration rate (less than 20 ng/dL)", "setting": "serum testosterone; [3]", "value": 71, "unit": "%"}, {"measurement": "Median PSA", "setting": "PSA; Baseline", "value": 7.3, "unit": "µg/L"}, {"measurement": "Median PSA", "setting": "PSA; Week 24", "value": 0.1, "unit": "µg/L"}, {"measurement": "Median PSA", "setting": "PSA; Week 28/EOT visit", "value": 0.07, "unit": "µg/L"}, {"measurement": "Median PSA", "setting": "PSA; Week 32/follow-up", "value": 0.07, "unit": "µg/L"}, {"measurement": "Median PSA", "setting": "PSA; Week 36/EOS", "value": 0.07, "unit": "µg/L"}, {"measurement": "patients achieving PSA values less than 0.2 ng/ml", "setting": "PSA; by the end of 12 weeks", "value": "1 of 20"}]}
